Measurements as given in patent publication US7572818B2, “2-pyridylethylbenzamide derivative” (Bayer Cropscience S.A., priority 2002, dated 2009).

Legend:
Pyrenophora teres = experiment: In vivo test of activity on Pyrenophora teres (barley net blotch); settings: 330 ppm, preventive spray 24 h before inoculation
Experimental: In Vivo Test of Activity on Pyrenophora teres (Barley Net Blotch)
(§1) An aqueous solution of the active material to be tested is prepared at a concentration of 2 g/l by grinding in solution 1 or solution 2:
(§2) • Water • Tween 80 diluted to 10% in water: 5 μl/mg of active material • Clay in a sufficient amount for active material+clay to equal 100 mg; Solution 2
(§3) Concentrated solution containing surfactants and adjuvants conventionally used: 200 μl/mg of active material.
(§4) The aqueous solution is diluted with water so as to obtain the desired concentration.
Barley plants of the Express variety are sown in a 50/50 pozzolan/peat substrate and maintained at 12° C. The treatment is carried out at the 1-leaf stage (10 cm) by spraying the aqueous suspension. The untreated control plants are sprayed with water.
24 hours after treatment, the plants are inoculated by spraying a solution of Pyrenophora teres spores (10 000 spores/ml) originating from a 10-day culture.
The barley plants are then maintained at 18° C. in a humid atmosphere. The effectiveness of the products is evaluated relative to the control plants after eight to fifteen days of incubation.
(§5) The effectiveness of the molecules is estimated, at 500 g/ha, 250 g/ha or 330 ppm, by the percentage of control relative to untreated plants. Under these conditions, good effectiveness is defined as more than 80% effectiveness. Average effectiveness is defined as an effectiveness between 50 and 80%. Poor effectiveness is defined as an effectiveness between 10 and 50% and zero effectiveness is defined as less than 10% effectiveness.

Alternaria brassicae = experiment: In vivo test of activity on Alternaria brassicae (crucifer black spot) on radish; settings: 330 ppm, preventive spray 24 h before inoculation
Experimental: In Vivo Test of Activity on Alternaria brassicae (Crucifer Black Spot)
as §1, §2, §3, §4
Radishes of the Pernot variety are sown in a 50/50 pozzolan/peat substrate and maintained at 18-22° C. The treatment is carried out by spraying the aqueous suspension. The untreated control plants are sprayed with water. 24 hours after treatment, the plants are inoculated by spraying a solution of Alternaria brassicae spores (40 000 spores/ml) originating from a 12-day culture.
The radish plants are then maintained at 18-20° C. in a humid atmosphere. The effectiveness of the products is evaluated relative to the control plants after seven to eight days of incubation.
as §5

Cc1ccc(C(=O)NCCc2ncc(C(F)(F)F)cc2Cl)c(C)c1 [Compound A-61]
effectiveness (percentage of control relative to untreated plants) (Pyrenophora teres): good to average | effectiveness (percentage of control relative to untreated plants) (Alternaria brassicae): good to average

COc1ccc(C(=O)NCCc2ncc(C(F)(F)F)cc2Cl)c(OC)c1 [Compound A-83]
effectiveness (percentage of control relative to untreated plants) (Pyrenophora teres): good to average | effectiveness (percentage of control relative to untreated plants) (Alternaria brassicae): good to average

COc1cc(Cl)ccc1C(=O)NCCc1ncc(C(F)(F)F)cc1Cl [Compound A-87]
effectiveness (percentage of control relative to untreated plants) (Pyrenophora teres): good to average | effectiveness (percentage of control relative to untreated plants) (Alternaria brassicae): good to average

O=C(NCCc1ncc(C(F)(F)F)cc1Cl)c1ccccc1OC(F)(F)F [Compound A-89]
effectiveness (percentage of control relative to untreated plants) (Pyrenophora teres): good to average | effectiveness (percentage of control relative to untreated plants) (Alternaria brassicae): good to average

O=C(NCCc1ncc(C(F)(F)F)cc1Cl)c1ccc(I)c(Br)c1 [Compound A-158]
effectiveness (percentage of control relative to untreated plants) (Alternaria brassicae): good to average

Cc1c(C(=O)NCCc2ncc(C(F)(F)F)cc2Cl)ccc(Cl)c1F [Compound A-162]
effectiveness (percentage of control relative to untreated plants) (Alternaria brassicae): good to average

CSc1c(F)ccc(C(=O)NCCc2ncc(C(F)(F)F)cc2Cl)c1F [Compound A-165]
effectiveness (percentage of control relative to untreated plants) (Alternaria brassicae): good to average

CSc1c(Br)ccc(C(=O)NCCc2ncc(C(F)(F)F)cc2Cl)c1F [Compound A-168]
effectiveness (percentage of control relative to untreated plants) (Alternaria brassicae): good to average

O=C(NCCc1ncc(C(F)(F)F)cc1Cl)c1cc(I)c(O)c(I)c1 [Compound A-169]
effectiveness (percentage of control relative to untreated plants) (Alternaria brassicae): good to average

COc1cc([N+](=O)[O-])ccc1C(=O)NCCc1ncc(C(F)(F)F)cc1Cl [Compound A-171]
effectiveness (percentage of control relative to untreated plants) (Alternaria brassicae): good to average

O=C(NCCc1ncc(C(F)(F)F)cc1Cl)c1ccc(Cl)cc1I [Compound A-176]
effectiveness (percentage of control relative to untreated plants) (Alternaria brassicae): good to average

Cc1ccc(I)c(C(=O)NCCc2ncc(C(F)(F)F)cc2Cl)c1 [Compound A-177]
effectiveness (percentage of control relative to untreated plants) (Alternaria brassicae): good to average

Cc1cccc(C(=O)NCCc2ncc(C(F)(F)F)cc2Cl)c1Cl [Compound A-178]
effectiveness (percentage of control relative to untreated plants) (Alternaria brassicae): good to average

Cc1cccc(C(=O)NCCc2ncc(C(F)(F)F)cc2Cl)c1I [Compound A-179]
effectiveness (percentage of control relative to untreated plants) (Alternaria brassicae): good to average

Cc1cccc(C(=O)NCCc2ncc(C(F)(F)F)cc2Cl)c1Br [Compound A-180]
effectiveness (percentage of control relative to untreated plants) (Alternaria brassicae): good to average

COc1cc(Cl)c(C(=O)NCCc2ncc(C(F)(F)F)cc2Cl)cc1OC [Compound A-181]
effectiveness (percentage of control relative to untreated plants) (Alternaria brassicae): good to average

Cc1ccc(Cl)c(C(=O)NCCc2ncc(C(F)(F)F)cc2Cl)c1F [Compound A-182]
effectiveness (percentage of control relative to untreated plants) (Alternaria brassicae): good to average

O=C(NCCc1ncc(C(F)(F)F)cc1Cl)c1cc(Br)ccc1I [Compound A-183]
effectiveness (percentage of control relative to untreated plants) (Alternaria brassicae): good to average

Cc1ccc(Cl)c(C(=O)NCCc2ncc(C(F)(F)F)cc2Cl)c1 [Compound A-184]
effectiveness (percentage of control relative to untreated plants) (Alternaria brassicae): good to average

O=C(NCCc1ncc(C(F)(F)F)cc1Cl)c1cc(I)ccc1Cl [Compound A-185]
effectiveness (percentage of control relative to untreated plants) (Alternaria brassicae): good to average

Cc1ccc(F)cc1C(=O)NCCc1ncc(C(F)(F)F)cc1Cl [Compound A-186]
effectiveness (percentage of control relative to untreated plants) (Alternaria brassicae): good to average

O=C(NCCc1ncc(C(F)(F)F)cc1Cl)c1cc(Cl)ccc1I [Compound A-188]
effectiveness (percentage of control relative to untreated plants) (Alternaria brassicae): good to average

COc1cc(I)c(C(=O)NCCc2ncc(C(F)(F)F)cc2Cl)cc1OC [Compound A-189]
effectiveness (percentage of control relative to untreated plants) (Alternaria brassicae): good to average

Cc1cccc(C(=O)NCCc2ncc(C(F)(F)F)cc2Cl)c1N [Compound A-194]
effectiveness (percentage of control relative to untreated plants) (Alternaria brassicae): good to average
